For one series, the system named is Colinus virginianus. Particulars: acute, oral, mortality.
The test system of another series is Anas platyrhynchos. Particulars: reproductive.
For another series, the system named is Daphnia magna. Particulars: chronic/long-term; duration: 21 days; mortality.
The conditions of series [1]: short-term; duration: 28 days; no effects.
The next series relates to Bibionidae. The note with it: chronic/long-term; duration: 23 days; other.
The next series concerns Tagia sp. Particulars: acute; duration: 14 days; mortality.
In the next series the test system is Plant. The note with it: chronic/long-term; duration: 28 days; frond number.

≈ marks a conversion by molar mass, not a printed value. Where only a bound is given, the exact number is not on record here.

The term NOAEL denotes the highest tested level that showed no adverse finding.

For the compound `C#CCN1C(=O)COc2cc(F)c(N3C(=O)C4=C(CCCC4)C3=O)cc21` [Flumioxazin], the LD50 in the series with Colinus virginianus (diet) is over 1510 mg/kg-day; in the series with Colinus virginianus, over 2250 mg/kg-day; in the series on Rattus norvegicus (acute, mortality), over 5000 mg/kg-day. The NOEL in the series on Anas platyrhynchos stood at 34.3 mg/kg-day. Besides, the NOEC with Daphnia magna came to 0.1 mg/L; in series [1], 0.15 mg/L; with Oncorhynchus mykiss (chronic/long-term, duration: 21 days, growth), 0.37 mg/L; with Bibionidae it was 0.73 mg/kg; in the series on Plant, 6.3 µg/L. Moreover, the LC50 was 2.3 mg/L (≈ 6.49 µM) in the series on Oncorhynchus mykiss (acute, duration: 96 hours, mortality) and over 982 mg/kg in the series on Tagia sp.. For the same compound, the NOAEL in the series on Rattus norvegicus (chronic, duration: 2 years, hematological) stood at 1.8 mg/kg-day; in the series on Rattus norvegicus (developmental, oral, gavage, development), 10 mg/kg-day; with Rattus norvegicus (reproduction developmental, growth) it was 7.5 mg/kg-day; in the series on Rattus norvegicus (subchronic, duration: 90 days, oral, hematological), 2.2 mg/kg-day.
